# Reference: patent US10351548B2, “2-oxo-1,2-dihydropyridine-3-carboxamide compounds and their use as inhibitors of PDK1” (INTERNATIONAL SOCIETY FOR DRUG DEVELOPMENT S.R.L., priority 2015, dated 2019)
# Where two headings read alike, the source gives them in different places.
# Experiments:
# Assay type in all cases: cell-based, human
# [1] = system: AKT phosphorylation at Thr308 in U87MG cells; test: PDK1 activity in U87MG cells, (T308)AKT phosphorylation ELISA
# Method: (§1) U87MG cells were cultured in 96-well microplates (5.000 cells/well), and treated for different times with 10 μM SA16, SA23 or IB35. At the end of the treatment period, the GSCs were centrifuged at 500×g for 3 minutes; cells were washed twice using fresh saline, and rapidly fixed with 4% (for adherent U87MG cells) or 8% (for suspension GSCs) formaldehyde to preserve activation of specific protein modification. The activity of PDK1 was assessed measuring the levels of phosphorylated AKT on Thr308, using a specific primary antibodies. The subsequent incubation with a secondary HRP-conjugated antibody and the developing solution allowed the colorimetric quantification of the levels of phosphorylated protein. The relative number of cells in each well was then determined using the Crystal-Violet assay. The results were calculated by subtracting the mean background value from the values obtained under each test condition: values were normalised to the number of cells in each well and were expressed as the percentages of the control (untreated cells) values.
# 280(4): p. 1107-1115). […] At the end of the treatment periods, the levels of (T308)AKT phosphorylation was evaluated using an ELISA kit, as described above. The data reported in FIG. 5 were expressed as the percentage of phosphorylated (T308)AKT relative to those of untreated cells (control), which were set at 100%, and were the mean values±SEM of three independent experiments performed in triplicate.
# [2] = system: AKT phosphorylation at Thr308 in GSCs; test: PDK1 activity in GSCs, (T308)AKT phosphorylation ELISA
# Method: as §1
# The effects of the new compounds on PDK1 activity were investigated by ELISA assays also in GSCs. U87MG-derived CSCs were treated for the indicated times (0-120 min) with NSC medium containing DMSO (control), or 10 μM IIB35, SA23 or SA16. At the end of the treatment periods, the levels of AKT phosphorylation on Thr308 were evaluated using an ELISA assay, as above described. The data were expressed as the percentage of phosphorylated AKT relative to those of untreated cells (control), which were set at 100%, and were the mean values±SEM of three independent experiments performed in triplicate. The data are represented in FIG. 12. The significance of differences was performed using one-way ANOVA with Bonferroni post-test (* p<0.05, ** p<0.01, *** p<0.001 vs. control).
# [3] = system: U87MG cells; test: U87MG cell proliferation, MTS assay; conditions: Homo sapiens, U-87 MG, 72 h, MTS assay
# Method: (§2) The U87MG cell line was obtained from the National Institute for Cancer Research of Genoa (Italy) and cultured in DMEM 10% FBS and 2 mM glutamine. To isolate GSCs, approximately 2.0×10^6 cells were suspended in 1 mL of a defined serum-free Neural Stem Cell (NSC) medium (Daniele, S., et al., Modulation of A1 and A2B adenosine receptor activity: a new strategy to sensitise glioblastoma stem cells to chemotherapy. Cell death & disease, 2014. 5(11): p. e1539). After 3-4 days of culture, the neurospheres were collected, suspended in NSC medium, dissociated into single cells, and plated for the assays. For the long-term treatment of cells, NSC or complete medium containing drugs was replaced every two to three days.
# (§3) The human U87MG cells or GSCs were seeded at a density of 3×10^3 cells/well. After 24 h, the cells were treated from one to seven days with fresh growth medium containing different concentrations of SA16, SA23 or IB35. Following the treatment period, cell proliferation was determined using the MTS assay according to manufacturer's instruction. The absorbance of formazan at […] was measured in a colorimetric assay with an automated plate reader (Victor Wallac 2, Perkin Elmer). The results were calculated by subtracting the mean background from the values obtained from each evaluation and were expressed as the percentage of the control (untreated cells). Sigmoid dose-response curve was generated, from which the IC50 values were derived.
# As representative GBM cell line, the above U87MG cells were used; this human cell line resulted an appropriate model to study the effects of PDK1 inhibition, because it is deficient for the tumour suppressor phosphatase and tensin homologue (PTEN), a negative regulator of the PI3K/AKT pathway (Wang, S. I., et al., Somatic mutations of PTEN in glioblastoma multiforme. Cancer research, 1997. 57(19): p. 4183-4186). To examine the effects of SA16, SA23 and IB35 on GBM cell growth/survival, U87MG cells were incubated with different concentrations of the new compounds (1 nM-10 μM) for 24 and 72 h. Specifically, U87MG cells were treated in complete medium with different concentrations of SA16, SA23 or IB35 (1 nM-10 μM) for 24 h (A) or 72 h (B). At the end of treatment, cell proliferation was measured using the MTS assay. The data are expressed as a percentage with respect to that of untreated cells (control), which was set to 100%, and are the mean values±SEM of three independent experiments, each performed in duplicate. The significance of the differences reported in FIGS. 1 and 2 was determined with a one-way ANOVA with Bonferroni post-test (* p<0.05, **p<0.01, *** p<0.001 vs. control cells).
# [4] = system: GSCs isolated from U87MG cells; test: GSC proliferation, MTS assay; conditions: Homo sapiens, U-87 MG, 168 h; seven days of treatment, MTS assay
# Method: as §2, §3
# The inhibition of PDK1 has been reported as potentially effective therapeutic approach to reduce self-renewal and propagation of GSCs (Signore, M., et al., Combined PDK1 and CHK1 inhibition is required to kill glioblastoma stem-like cells in vitro and in vivo. Cell death & disease, 2014. 5(5): p. e1223). On this basis, the effects of SA16, SA23 and IB35 on GSCs, isolated from U87MG cells as previously reported, were evaluated (Daniele, S., et al., Modulation of A1 and A28 adenosine receptor activity: a new strategy to sensitise glioblastoma stem cells to chemotherapy. Cell death & disease, 2014. 5(11): p. e1539). U87MG-derived GSCs were incubated with the indicated concentrations of IB35, SA23 or SA16 for four days (FIG. 8) or seven days (FIG. 9). At the end of the treatment periods, cell proliferation was measured using the MTS assay. The data were expressed as a percentage with respect to that of untreated cells (control), which was set to 100%, and are the mean values±SEM of three independent experiments, each performed in duplicate. IC50 values after seven days of treatment were calculated from sigmoid dose-response curve (FIG. 9). The significance of the differences was determined with a one-way ANOVA with Bonferroni post-test (** p<0.01, *** p<0.001 vs. control).
# [5] = system: U87MG cells; test: Annexin V and 7-AAD staining in U87MG cells (apoptosis); conditions: 10 μM, 72 h
# Method: Dual staining with Annexin V coniugated to fluorescein-isothiocyanate (FITC) and 7-amino-actinomysin (7-AAD) was performed using the commercially available kit (Muse Annexin V and Dead Cell Kit; Merck KGaA, Darmstadt, Germany). U87MG cells or GSCs were treated with DMSO (control), SA16, SA23 or IB35 for 72 h or seven days, respectively. At the end of the treatment periods, the percentages of living, apoptotic and dead cells were acquired and analysed by Muse™ Cell Analyzer as previously described (Daniele, S., et al., Combined inhibition of AKT/mTOR and MDM2 enhances Glioblastoma Multiforme cell apoptosis and differentiation of cancer stem cells. Sci. Rep., 2015. 5.).
# It was then investigated whether the reduction in cell proliferation elicited by the PDK1 inhibitors could be associated with apoptosis. U87MG cells were treated for 72 h with DMSO (control), or 10 μM SA16, SA23 or IB35. At the end of the treatment period, the cells were collected, and the level of phosphatidylserine externalisation was evaluated using the Annexin V-staining protocol, as described above (FIG. 3). In FIG. 4 the data are expressed as the percentage of apoptotic cells (the data for the early-stage apoptotic cells shown in white, and the data for the late-stage apoptotic/necrotic cells shown in grey) versus the total number of cells. The data shown represented the mean±SEM of three different experiments. The significance of the differences was determined with a one-way ANOVA with Bonferroni post-test (*** p<0.001 vs. control).
smiles,measurement,setting,value
"O=C1Nc2ccc(NC(=O)[C@H](NC(=O)c3cccn(Cc4ccc(F)c(F)c4)c3=O)c3ccccc3)cc2/C1=C/c1cnc[nH]1 [SA16, (Z)—(R)—N-(2-((3-((1H-imidazol-5-yl)methylene)-2-oxoindolin-5-yl)amino)-2-oxo-1-phenylethyl)-1-(3,4-difluorobenzyl)-2-oxo-1,2-dihydropyridine-3-carboxamide]",inhibition at 10 µM,"[1]; Homo sapiens, U-87 MG, U87MG cells, read-out: peak of inhibition (percentage of PDK1 inhibition)",33.3 ± 4.5%
same,inhibition of AKT phosphorylation at Thr308,"[1]; U87MG, 10 μM, 0-120 min",biphasic kinetic
same,inhibition of AKT phosphorylation at Thr308,"[2]; 10 μM, 0-120 min",biphasic kinetic
same,inhibition at 10 µM,"[2]; Homo sapiens, read-out: peak of inhibition (percentage of PDK1 inhibition)",74.8 ± 3%
same,IC50,[3]; read-out: IC50 U87MG,2050 ± 190 nM
same,IC50,[3]; read-out: IC50 U87MG cell proliferation,2050 ± 190 nM
same,IC50,[4],5.47 ± 0.1 nM
same,phosphatidylserine externalization (early and late apoptosis/death),[5],significant phosphatidylserine externalization
